According to patent EP0386611A2, “Amino acid derivatives” (F. HOFFMANN-LA ROCHE AG, priority 1989, dated 1990):
Where two headings read alike, the source gives them in different places.

Columns and labels:
HTLV-III (strain RF) = assay: In vitro antiviral activity: HTLV-III (strain RF) in C8166 cells, p24 antigen capture assay; format: cell-based; settings: Human immunodeficiency virus 1; concentration that produces 50% protection; C8166 cells infected with ten times the TCD₅₀, 72 hours at 37°C, viral protein 24 antigen capture; read-out: IC₅₀ Activity against HIV
Procedure: This assay uses HTLV-III (strain RF) grown in C8166 cells (a human CD4⁺ T lymphoblastoid line) using RPM1 1640 medium with bicarbonate buffer, antibiotics and 10% foetal bovine serum.
A suspension of cells is infected with ten times the TCD₅₀ of virus and adsorption allowed to proceed for 90 minutes at 37°C. The cells are washed three times with medium. The test is carried out in 6 ml tissue culture tubes, each tube containing 2 x 10⁵ infected cells in 1.5 ml of medium. Test compounds are dissolved in either aqueous medium or dimethyl sulphoxide, according to solubility, and a 15 µl solution of the compound added. The cultures are incubated at 37°C for 72 hours in a humidified atmosphere containing 5% carbon dioxide in air. The cultures are then centrifuged and an aliquot of the supernatant solubilized with Nonidet P40 and subjected to an antigen capture assay which uses a primary antiserum with particular reactivity against the viral protein 24 and a horseradish peroxidase detection system. Colour generation is measured spectrophotometrically and plotted against the concentration of test compound. The concentration that produces 50% protection is determined (IC₅₀).

HIV protease = biological target: T1, HIV protease (Human immunodeficiency virus type 1 group M subtype B, UniProt P04585); assay: In vitro inhibition of HIV protease (spectrophotometric assay of N-terminal proline from cleavage of substrate S¹ or S²); format: biochemical; settings: citrate buffer pH 5.5, 37°C
T1 construct: HIV protease was expressed in E. coli and partially purified from soluble extracts; made in house; host or cells: E. coli
Procedure: HIV protease was expressed in E. coli and partially purified from soluble extracts of the bacterium by ammonium sulphate fractionation (0-30%). Protease activity was assayed using as the substrate the protected hexapeptide succinyl-Ser-Leu-Asn-Tyr-Pro-Ile isobutylamide (S¹) or the protected heptapeptide succinyl-Val-Ser-Gln-Asn-Phe-Pro-Ile isobutylamide (S²). Cleavage of the substrate was quantified by measuring the production of H-Pro-Ile isobutylamide by the spectrophotometric assay of N-terminal proline.
1.25 mM of substrate S¹ or 0.68 mM of substrate S² were dissolved in 125 mM of citrate buffer (pH 5.5) containing 0.125 mg/ml of Tween 20. 10 µl of a solution of various concentrations of the test compound (dissolved in methanol or dimethyl sulphoxide and diluted with water containing 0.1% Tween 20) and 10 µl of protease were added to 80 µl of the respective buffered substrate. Digestion was carried out at 37°C for a fixed period of time and was terminated by the addition of 1 ml of colour reagent [30 µg/ml of isatin and 1.5 mg/ml of 2-(4-chlorobenzoyl)benzoic acid in 10% acetone in ethanol (vol./vol.)]. The solution was heated in a boiling water bath for 15 minutes and then the pigmented residues were re-dissolved in 1 ml of 1% pyrogallol in 33% water in acetone (wt./vol./vol.). The optical density of the solution was measured spectrophotometrically at 599 nm. The formation of H-Pro-Ile isobutylamide in the presence of the test compound was compared with controls and the concentration of test compound required to give 50% inhibition (IC₅₀) was determined by means of a graph plotted from the various concentrations of test compound used.
In the above test the determination of the IC₅₀ values for potent inhibitors is limited by mutual depletion. In this respect, substrate S² is more sensitive than substrate S¹ and this allows reduced protease concentrations to be used, which results in lower IC₅₀ values. This will be seen from the results presented in the Table hereinafter where in turn the 2nd run with substrate S² was carried out using a lower protease concentration than in the 1st run which results again in lower IC₅₀ values.

[1] = substrate S² (succinyl-Val-Ser-Gln-Asn-Phe-Pro-Ile isobutylamide), 0.68 mM, 1st run, read-out: IC₅₀ Inhibition of HIV protease S² 1st run
[2] = substrate S², 0.68 mM, 2nd run, lower protease concentration than in the 1st run, read-out: IC₅₀ Inhibition of HIV protease S² 2nd run
[3] = substrate S¹ (succinyl-Ser-Leu-Asn-Tyr-Pro-Ile isobutylamide), 1.25 mM, read-out: IC₅₀ Inhibition of HIV protease S¹

Row | SMILES | IC50 (HTLV-III (strain RF)) [nM] | IC50 (HIV protease; [1]) [nM] | IC50 (HIV protease; [2]) [nM] | IC50 (HIV protease; [3]) [nM]
1 | CC[C@H](C)[C@H](NC(=O)[C@@H](C[C@H](O)[C@H](CC1CCCCC1)NC(=O)OC(C)(C)C)C(C)C)C(=O)NCCc1ccccc1 [Compound A, N²-[5(S)-(tert.Butoxyformamido)-6-cyclohexyl-4(S)-hydroxy-2(S)-isopropylhexanoyl]-N¹-phenethyl-L-isoleucinamide] | 100 | 4.5 | 0.62 | 12
2 | CC[C@H](C)[C@H](NC(=O)[C@@H](C[C@H](O)[C@H](CC1CCCCC1)NC(=O)OC(C)(C)C)C(C)C)C(=O)N[C@@H](Cc1ccccc1)C(=O)OC [Compound B, N-[N-[5(S)-(tert.Butoxyformamido)-6-cyclohexyl-4(S)-hydroxy-2(S)-isopropylhexanoyl]-L-isoleucyl]-L-phenylalanine methyl ester] | – | 3.4 | 0.48 | 20
3 | CC[C@H](C)[C@H](NC(=O)[C@@H](C[C@H](O)[C@H](CC1CCCCC1)NC(=O)OC(C)(C)C)C(C)C)C(=O)NCc1ccccc1 [Compound C, N²-[5(S)-(tert.Butoxyformamido)-6-cyclohexyl-4(S)-hydroxy-2(S)-isopropylhexanoyl]-N¹-benzyl-L-isoleucinamide] | 7 | 3.3 | – | 15
4 | CC[C@H](C)[C@H](NC(=O)[C@@H](C[C@H](O)[C@H](CC1CCCCC1)NC(=O)OC(C)(C)C)C(C)C)C(=O)NCCc1ccccn1 [Compound D, N²-[5(S)-(tert.Butoxyformamido)-6-cyclohexyl-4(S)-hydroxy-2(S)-isopropylhexanoyl]-N¹-[2-(2-pyridyl)ethyl]-L-isoleucinamide] | 20 | 2.5 | 0.52 | –
5 | CC[C@H](C)[C@H](NC(=O)[C@@H](C[C@H](O)[C@H](CC1CCCCC1)NC(=O)OC(C)(C)C)C(C)C)C(=O)NC1Cc2ccccc2C1 [Compound E, N²-[5(S)-(tert.Butoxyformamido)-6-cyclohexyl-4(S)-hydroxy-2(S)-isopropylhexanoyl]-N¹-(2-indanyl)-L-isoleucinamide] | 70 | 4.3 | 2.2 | –
6 | CC[C@H](C)[C@H](NC(=O)[C@@H](C[C@H](O)[C@H](CC1CCCCC1)NC(=O)OC(C)(C)C)C(C)C)C(=O)NCCN1CCOCC1 [Compound F, N²-[5(S)-(tert.Butoxyformamido)-6-cyclohexyl-4(S)-hydroxy-2(S)-isopropylhexanoyl]-N¹-(2-morpholinoethyl)-L-isoleucinamide] | 100 | 4 | 1.9 | –
7 | CC[C@H](C)[C@H](NC(=O)[C@@H](C[C@H](O)[C@H](Cc1ccccc1)NC(=O)OC(C)(C)C)C(C)C)C(=O)NCCc1ccccc1 [Compound G, N²-[5(S)-(tert.Butoxyformamido)-4(S)-hydroxy-2(S)-isopropyl-6-phenylhexanoyl]-N¹-phenethyl-L-isoleucinamide] | 100 | 4.1 | 0.89 | 32
8 | CC[C@H](C)[C@H](NC(=O)[C@@H](C[C@H](O)[C@H](CC1CCCCC1)NC(=O)OCc1ccccc1)C(C)C)C(=O)NCCc1ccccc1 [Compound H, N²-[5(S)-Benzyloxyformamido-6-cyclohexyl-4(S)-hydroxy-2(S)-isopropylhexanoyl]-N¹-phenethyl-L-isoleucinamide] | 60 | 3 | 0.91 | 22
9 | CC[C@H](C)[C@H](NC(=O)[C@@H](C[C@H](O)[C@H](CC1CCCCC1)NC(=O)[C@H](CC(N)=O)NC(=O)OCc1ccccc1)C(C)C)C(=O)NCCc1ccccc1 [Compound I, N²-[5(S)-[[N-(Benzyloxycarbonyl)-L-asparaginyl]amino]-6-cyclohexyl-4(S)-hydroxy-2(S)-isopropylhexanoyl]-N¹-phenethyl-L-isoleucinamide] | 9 | 2.5 | 0.39 | 80
10 | CC[C@H](C)[C@H](NC(=O)[C@@H](C[C@H](O)[C@H](CC1CCCCC1)NC(=O)CC(C)(C)C)C(C)C)C(=O)NCCc1ccccc1 [Compound J, N²-[5(S)-(tert.Butylacetamido)-6-cyclohexyl-4(S)-hydroxy-2(S)-isopropylhexanoyl]-N¹-phenethyl-L-isoleucinamide] | 100 | 7.7 | – | –
11 | CC[C@H](C)[C@H](NC(=O)[C@@H](C[C@H](O)[C@H](CC1CCCCC1)NC(=O)[C@H](CC#N)NC(=O)OCc1ccccc1)C(C)C)C(=O)NCCc1ccccc1 [Compound K, N²-[5(S)-[[N-(Benzyloxycarbonyl)-β-cyano-L-alanyl]amino]-6-cyclohexyl-4(S)-hydroxy-2(S)-isopropylhexanoyl]-N¹-phenethyl-L-isoleucinamide] | 4 | – | 1.6 | –
12 | CC[C@H](C)[C@H](NC(=O)[C@@H](C[C@H](O)[C@H](CC1CCCCC1)NC(=O)OC(C)(C)C)C(C)C)C(=O)NCCN1CCN(C(=O)OCc2ccccc2)CC1 [Compound L, N¹-[2-[4-(Benzyloxycarbonyl)-1-piperazinyl]ethyl]-N²-[5(S)-(tert.butoxyformamido)-6-cyclohexyl-4(S)-hydroxy-2(S)-isopropylhexanoyl]-L-isoleucineamide] | 5 | – | 2.7 | –
13 | CC[C@H](C)[C@H](NC(=O)[C@@H](C[C@H](O)[C@H](CC1CCCCC1)NC(=O)OC(C)(C)C)C(C)C)C(=O)NCCc1ccc(O)cc1 [Compound M, N²-[5(S)-(tert.Butoxyformamido)-6-cyclohexyl-4(S)-hydroxy-2(S)-isopropylhexanoyl]-N¹-[2-(4-hydroxyphenyl)ethyl]-L-isoleucinamide] | 10 | – | 3.7 | –
14 | CC[C@H](C)[C@H](NC(=O)[C@H](C(C)C)[C@@H](O)[C@H](O)[C@H](CC1CCCCC1)NC(=O)OC(C)(C)C)C(=O)NCCN1CCN(C(=O)OCc2ccccc2)CC1 [Compound N, N¹-[2-[4-(Benzyloxycarbonyl)-1-piperazinyl]ethyl]-N²-[5(S)-(tert.butoxyformamido)-6-cyclohexyl-3(R),4(R)-dihydroxy-2(R)-isopropylhexanoyl]-L-isoleucinamide] | < 100 | – | 4.1 | –
